Assay results reported in PubChem BioAssay (NCI).
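Where inhibition never reached the appropriate level, the endpoint shown equals the highest concentration tested. Otherwise, values were interpolated linearly from a five-concentration, 48-hour dose response in 96-well plates. The concentration for 50% growth inhibition is given as GI50. TGI marks complete inhibition of growth.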

Columns and labels:
Test in all cases: NCI tumour cell line growth inhibition, 48 h
HOP-62 NSCLC = tested on: HOP-62 NSCLC
NCI/ADR-RES ovarian = tested on: NCI/ADR-RES ovarian
MDA-MB-231 breast = tested on: MDA-MB-231 breast
OVCAR-5 ovarian = tested on: OVCAR-5 ovarian
MOLT-4 leukemia = tested on: MOLT-4 leukemia
HCT-15 colon = tested on: HCT-15 colon
U251 CNS = tested on: U251 CNS
UO-31 renal = tested on: UO-31 renal

Compound | TGI (HOP-62 NSCLC) | TGI (NCI/ADR-RES ovarian) | TGI (MDA-MB-231 breast) | TGI (OVCAR-5 ovarian) | TGI (MOLT-4 leukemia) | TGI (HCT-15 colon) | TGI (U251 CNS) | TGI (UO-31 renal) | GI50 (NCI/ADR-RES ovarian) | GI50 (MDA-MB-231 breast) | GI50 (OVCAR-5 ovarian) | GI50 (MOLT-4 leukemia) | GI50 (HCT-15 colon) | GI50 (UO-31 renal) | GI50 (HOP-62 NSCLC) | GI50 (U251 CNS)
COc1cc(/C=C/C(=O)c2c(=O)o[nH][n+]2-c2ccccc2)ccc1[O-] | 16 µM | 7.22 µM | 12.4 µM | 25.6 µM | 5.59 µM | 6.12 µM | 11 µM | 10.1 µM |  |  |  |  |  |  |  | 
COc1nc2c(c(=O)n1C)N[C@H]1[C@H](OC(C)=O)[C@@H](OC(C)=O)CO[C@H]1N2 | > 100 µM | > 100 µM | > 100 µM | > 100 µM | > 100 µM | > 100 µM | > 100 µM | > 100 µM |  |  |  |  |  |  |  | 
N/N=C1/C2CN3CCN(C2)CC1(c1ccc([N+](=O)[O-])cc1)C3 | > 100 µM | > 100 µM | > 100 µM | > 100 µM | > 100 µM |  | > 100 µM | > 100 µM |  |  |  |  |  |  |  | 
N#Cc1nc(CCCCCN2C(=O)c3ccccc3C2=O)oc1N | > 100 µM | > 100 µM | > 100 µM | > 100 µM | > 100 µM | > 100 µM | > 100 µM | > 100 µM |  |  |  |  |  |  |  | 
C/C(=N\NC(=S)N1CCCCC1)c1cccc(C)n1 |  | 0.258 µM | 16.5 µM | 21.1 µM | > 100 µM | 21.6 µM | 11.5 µM | 1.53 µM |  |  |  |  |  |  |  | 
Clc1ccc(N2N=C(c3cccc(Nc4ccncc4)c3)CC2c2ccc3c(c2)OCO3)cc1 (centres undefined) |  | 3.17 µM | 2.64 µM | 5.69 µM | 4.58 µM | 3.41 µM |  | 2.86 µM | 1.64 µM | 1.29 µM | 2.11 µM | 1.97 µM | 1.76 µM | 1.36 µM |  | 
CCc1c(Cc2cccc3ccccc23)n2c(nc1=O)SCC2OCCO (centres undefined) |  | > 100 µM | > 100 µM | > 100 µM | > 100 µM | > 100 µM | > 100 µM | > 100 µM |  |  |  |  |  |  |  | 
COC(=O)[C@H]1[C@@H](C(C)C)O[C@@H](C(C)C)O[C@H]1C(F)(F)F | > 100 µM | > 100 µM | > 100 µM | > 100 µM | > 100 µM | > 100 µM | > 100 µM | > 100 µM |  |  |  |  |  |  |  | 
Cc1cc(O)c(C(C)C)cc1SC#N | 38.2 µM | 47.7 µM | 37.9 µM |  | 25.3 µM | 39.3 µM | 31.8 µM |  |  |  |  |  |  |  |  | 
N#CC(C#N)=C1C(C#N)=C(N)NC12OCCO2 | > 100 µM | > 100 µM | > 100 µM | > 100 µM | > 100 µM | > 100 µM | > 100 µM | > 100 µM |  |  |  |  |  |  |  | 
Cc1ccc(S(=O)(=O)NNC(=O)c2cc(C)ccc2NC(=O)C23CC4CC(CC(C4)C2)C3)cc1 | > 100 µM | > 100 µM | > 100 µM | > 100 µM | > 100 µM | 66.8 µM | > 100 µM | 44.9 µM |  |  |  |  |  |  |  | 
CN(C)c1nc(N(C)C)nc(N(C)C23CC4CC(CC(C4)C2)C3)n1 | > 100 µM | > 100 µM | 77.4 µM | > 100 µM |  | > 100 µM | > 100 µM | > 100 µM |  |  |  |  |  |  |  | 
COc1ccc2c(c1)C(N)=C(c1ccccc1)C2=O | > 100 µM | > 100 µM | > 100 µM | > 100 µM | > 100 µM | > 100 µM | > 100 µM |  |  |  |  |  |  |  |  | 
Clc1ccc(Cc2nc3ccccc3nc2-c2cccc(Br)c2)cc1 | 36.1 µM | 15.3 µM | 14.1 µM | 16.6 µM | 6.84 µM | 3.11 µM | 20.9 µM | 3.38 µM |  |  |  |  |  |  |  | 
CO/C(=N\N=C\c1cccc(Cl)c1)c1ccncc1 | > 10 µM | > 10 µM | > 10 µM | > 10 µM | > 10 µM | > 10 µM | > 10 µM | > 10 µM |  |  |  |  |  |  |  | 
c1ccc(CCNCc2ccco2)nc1 | > 100 µM | > 100 µM | > 100 µM | > 100 µM | > 100 µM | > 100 µM | > 100 µM | > 100 µM |  |  |  |  |  |  |  | 
Cc1ccc(C(=O)O)c(CC2Cc3c(C)cccc3C2=O)c1 (centres undefined) | > 100 µM | > 100 µM | > 100 µM | > 100 µM | > 100 µM | > 100 µM | > 100 µM | > 100 µM |  |  |  |  |  |  |  | 
CC(=O)O[C@@H]1C[C@@]23C[C@@]24CC[C@H](OC2OCC(O)C(O)C2O)C(C)(C)[C@@H]4CC=C3[C@]2(C)C[C@@H]3OC4(C[C@@H](C)[C@@H]3[C@@]12C)OC(O)[C@@]1(C)O[C@@H]41 (some centres undefined) | 78.3 µM | > 100 µM | 44 µM | > 100 µM |  | 96.7 µM | > 100 µM | > 100 µM |  |  |  |  |  |  |  | 
C=C(CCC(C)C1CCC2C3=C(C(=O)CC21C)C1(C)CCC(=O)[C@@H](C)C1CC3=O)C(C)C(=O)O (some centres undefined) | > 100 µM | > 100 µM | > 100 µM | > 100 µM | 74.9 µM | > 100 µM | > 100 µM | 32.4 µM |  |  |  |  |  |  |  | 
O=C(/C(=C\C(=O)c1cccs1)c1ccsc1)c1ccc(Br)cc1 | > 100 µM | > 100 µM | > 100 µM |  | > 100 µM | > 100 µM | > 100 µM | > 100 µM |  |  |  |  |  |  |  | 
Cc1cc(/C=C\c2ccc3ccccc3[n+]2C)c(O)c2ncccc12 | 8.03 µM | 13.6 µM | 1.9 µM | 6.19 µM | > 100 µM | 17.8 µM | > 100 µM | 3.27 µM | 1.1 µM | 0.259 µM | 0.829 µM | 0.4 µM | 1.52 µM | 0.405 µM | 0.497 µM | 0.537 µM
O=CC(O)C(O)C(O)C(O)C(=O)NCCCCCCCCCCCCNC(=O)C(O)C(O)C(O)C(O)C=O (centres undefined) | > 100 µM | > 100 µM | > 100 µM | > 100 µM | > 100 µM | > 100 µM | > 100 µM | > 100 µM |  |  |  |  |  |  |  | 
COc1nc(N(C)C)nc2c1n(C)c[n+]2C | > 100 µM | > 100 µM | > 100 µM | > 100 µM | > 100 µM | > 100 µM | > 100 µM | > 100 µM |  |  |  |  |  |  |  | 
COc1cc2nc(-c3ccc4ccccc4c3)[nH]c(=O)c2cc1OC | 84.3 µM | > 100 µM | > 100 µM | > 100 µM | > 100 µM | > 100 µM |  | > 100 µM |  |  |  |  |  |  |  | 
